Measured values from patent EP0925782A2, “Cosmetics” (SOGO PHARMACEUTICAL COMPANY LIMITED, priority 1997, dated 1999).
Where a name gives a salt, the structure may show the parent alone.

Key:
[1] = Test for a moisturizability (weight change after standing at constant temperature and humidity); assay type: physicochemical; settings: dried sample, 20°C, humidity 75% for 7 days, then 20°C, humidity 45% for 7 days, evaluated from change in weight
Procedure: Approximately one gram of a sample was taken in a weighing bottle, and dried with diphosphorus pentoxide under reduced pressure for 4 hours. The resulting sample was used in the following test. The weight was accurately measured, and the sample was allowed to stand in a constant temperature and constant humidity box having a temperature of 20°C and a humidity of 75% for 7 days. Subsequently, the sample was moved in a constant temperature and constant humidity box having a temperature of 20°C and a humidity of 45%, and allowed to stand for 7 days. The moisturizability was evaluated from the change in weight. As a control sample, glycerin was used. […]

rat = settings: p. o.; cited from earlier work

Row | SMILES | Water holding capacity (%) ([1]; sodium salt) | LD50 (rat) [mg/kg] | Water holding capacity (%) [1] [%]
1 | N[C@@H](CCC(=O)NCCS(=O)(=O)O)C(=O)O [Glutaurine sodium salt, glutaurine sodium salt] | 19.45 |  | 
2 | N[C@@H](CCC(=O)NCCS(=O)(=O)O)C(=O)O [Glutaurine, glutaurine] |  | > 1000 | 17.12
3 | OCC(O)CO [Glycerin, glycerin, reference compound] |  |  | 19.88
